# Assay results from ChEMBL document CHEMBL1138894, “Synthesis and biological investigation of S-aryl-S-DABO derivatives as HIV-1 inhibitors” (Bioorg Med Chem Lett, 2006).
# Active and inactive are the calls of the source. The calls are words filed in the database; no cut-off is given here.
# Legend:
# MT4 = assay: Cytotoxicity against MT4 cells by MTT assay; format: functional; details: Homo sapiens
# [1] = test system: Human immunodeficiency virus type 1 reverse transcriptase (Human immunodeficiency virus 1), Q72547 [Y181I]; assay: Inhibition of HIV1 reverse transcriptase Y181I mutant at 400uM
# [2] = test system: Human immunodeficiency virus type 1 reverse transcriptase (Human immunodeficiency virus 1), Q72547 [K103N]; assay: Inhibition of HIV1 reverse transcriptase K103N mutant at 400uM
# [3] = molecular target: Human immunodeficiency virus type 1 reverse transcriptase (Human immunodeficiency virus 1) (UniProt Q72547)
# [4] = molecular target: Human immunodeficiency virus type 1 reverse transcriptase (Human immunodeficiency virus 1) (UniProt Q72547); assay: Inhibition of wild type HIV1 reverse transcriptase at 400uM
# [5] = molecular target: Human immunodeficiency virus type 1 reverse transcriptase (Human immunodeficiency virus 1) (UniProt Q72547); assay: Selectivity index (CC50/EC50); format: functional
Structure (SMILES),CC50 (MT4),Activity [1],Activity [2],ID50 [3],Activity [4],Selectivity index [5]
COc1ccc(Sc2nc(O)c(C)c(Cc3c(Cl)cccc3Cl)n2)cn1,> 61.3 µM,inactive,inactive,3.5 µM,–,–
"O=C1Nc2ccc(Cl)cc2C(C#CC2CC2)(C(F)(F)F)O1 (single isomer, unassigned) [EFAVIRENZ]",> 0.32 µM,–,–,–,–,–
Cc1cn([C@H]2C[C@H](N=[N+]=[N-])[C@@H](CO)O2)c(=O)[nH]c1=O [ZIDOVUDINE],3.7 µM,–,–,–,–,–
Cc1c(O)nc(Sc2ccc(Cl)cc2)nc1Cc1c(F)cccc1F,> 66.1 µM,inactive,inactive,22 µM,–,–
Cc1ccnc2c1NC(=O)c1cccnc1N2C1CC1 [NEVIRAPINE],> 7.5 µM,–,–,–,–,–
COc1ccc(Sc2nc(O)c(C)c(Cc3c(Cl)cccc3Cl)n2)cc1,> 61.4 µM,inactive,inactive,–,inactive,–
Cc1c(O)nc(Sc2ccc(C#N)cc2)nc1Cc1c(Cl)cccc1Cl,27.6 µM,inactive,inactive,23 µM,–,–
Cc1c(O)nc(Sc2ccccc2)nc1Cc1c(F)cccc1F,> 72.7 µM,inactive,inactive,32 µM,–,> 835
Cc1c(O)nc(Sc2ccccc2)nc1Cc1c(Cl)cccc1Cl,> 66.3 µM,inactive,inactive,36 µM,–,–
COc1ccc(Sc2nc(O)c(C)c(Cc3c(F)cccc3F)n2)cc1,57.5 µM,inactive,inactive,–,inactive,–
Cc1c(O)nc(Sc2ccc(F)cc2F)nc1Cc1c(Cl)cccc1Cl,> 60.5 µM,inactive,inactive,10 µM,–,–
Cc1c(O)nc(Sc2ccc(F)cc2F)nc1Cc1c(F)cccc1F,> 65.8 µM,inactive,inactive,30 µM,–,–
